Experimental data reported in patent US6623766B1, “Process for insecticidal formulation effective in controlling malarial vector, mosquitoes” (Council of Scientific and Industrial Research, priority 2002, dated 2003).

Tested on: mosquito (Anopheles stephensi) larvae
Test: Standard WHO larvicidal test (WHO, 1981, slightly modified) on fourth-stage mosquito larvae, mortality after 24 hours
Assay type: in vivo
Procedure: (§1) Essential oil (0.1 ml) obtained from plant genus Foeniculum vulgare was first mixed with Tween-80 (0.1 ml) of 0.001% concentration and then the mixture was dissolved in water to make the solution of 0.01% concentration. This solution was tested against mosquito (Anopheles stephensi) larvae in the laboratory.
(§2) Standard WHO test (WHO, 1981) was employed with slight modification in the test procedure. A single fourth-stage larva was put into each of fifty vials containing 5 ml of the got test solution of each concentration. Single vial with one larva was used in one replication. Thus a total of 50 insects were used in fifty replications. Mortality data for mosquito larvae were recorded after 24 hours.
as §1, with “Mentha spicata var. viridis” for “Foeniculum vulgare”
as §2, with “the” for “the got”
as §1, with “Zingiber officinale” for “Foeniculum vulgare”
Tween-80 purchased from Hi-Media, Mumbai, India, an emulsifying agent (0.1-ml) of 0.001% concentration was dissolved in water to make the solution of 0.01% concentration. This solution was tested against mosquito (Anopheles stephensi) larvae in the laboratory.
as §1, with “oil (0.05 ml each)” for “oil (0.1 ml)”, “vulgare and Mentha spicata var. viridis were” for “vulgare was”
as §1, with “oil (0.05 ml each)” for “oil (0.1 ml)”, “vulgare and Zingiber officinale were” for “vulgare was”, “laboratory. […]” for “laboratory.”

C/C=C\c1cc(OC)c(OC)cc1OC [Example 14, β-Asarone]
Mean % mortality after 24 hours (0.0016% concentration (standard), Anopheles stephensi larvae, Table 1 summary): 100% | mortality (0.0016% concentration, fourth-stage larvae, recorded after 24 hours, laboratory conditions): 100.0%

Tween-80 [Example 4]
Mean % mortality after 24 hours (in vivo): 0% | mortality (in vivo): 0.0%
